The values below come from publication PMC9696832, “Pyrazole-Based Thrombin Inhibitors with a Serine-Trapping Mechanism of Action: Synthesis and Biological Activity” (Pharmaceuticals, 2022).

The structures appear in SMILES notation. Where two headings read alike, the source gives them in different places. Some results are limits rather than exact numbers.

In one data set the target is T1, human β-FXIIa (Homo sapiens, UniProt P00748).
T1 construct: human β-FXIIa, HFXIIAB; purchased Molecular Innovations HFXIIAB
Put plainly: Serine protease inhibition assay, fluorogenic substrate: FXIIa. It is filed as biochemical. To be noted: for IC50: read-out: Serine Protease IC50 ± SD, FXIIa. As for the experimental part: Serine protease inhibition assays. The inhibitory activity of synthesized compounds towards thrombin, FXIIa, FXa, FXIa, plasmin, plasma kallikrein, chymotrypsin, and trypsin was measured by quantifying the hydrolysis rate of the fluorogenic substrate as reported previously. Briefly, the activity was tested in buffer (10 mM Tris-Cl, 150 mM NaCl, 10 mM MgCl2·6H2O, 1 mM CaCl2·2H2O, 0.1% w/v BSA, 0.01% v/v Triton-X100, pH = 7.4) utilizing clear flat-bottom, black polystyrene 96 well-plates. […] Dilutions of test-compounds ranging from 2 nM to 32 µM (final concentrations) in DMSO were prepared. The fluorogenic substrate solution was added into the wells followed by the addition of 2 µL of test-compounds solution, and the reaction was triggered by addition of the enzyme solution (final testing volume–152 µL). In case of blank (substrate + buffer) and control (substrate + enzyme) wells, 2 µL of DMSO was added instead of the test-compounds’ solution. Fluorescence intensity was measured with Microplate Reader Mithras LB 940 (Berthold Technologies, excitation at 355 nm, emission at 460 nm) for a period of 1 h (thrombin, FXIIa, FXa, FXIa, and trypsin), 30 min (plasma kallikrein, chymotrypsin), or 15 min (plasmin) with a read every minute. The reactions were performed at 25 °C. To derive IC50 values, endpoint RFU (single fluorescence reading) was used. Sigmoidal curves were prepared in GraphPad Prism software and IC50 values were derived from the fitted curves.

The next data set has as its target T2, human α-thrombin (Homo sapiens, UniProt P00734).
T2 construct: human α-thrombin (active) protein; purchased antibodies-online ABIN2127880
Briefly: Serine protease inhibition assay, fluorogenic substrate: thrombin. It is filed as biochemical.

Setting [1] is: read-out: Serine Protease IC50 ± SD, Thrombin.
Where [2] appears, read: [S]0 = 25 µM Boc-Val-Pro-Arg-AMC, Km = 18 ± 1 µM, triplicate, 25 °C, read-out: Serine Protease IC50 ± SD, Thrombin.

T1 sequence (P00748 373-615 limits assumed, other chains not shown): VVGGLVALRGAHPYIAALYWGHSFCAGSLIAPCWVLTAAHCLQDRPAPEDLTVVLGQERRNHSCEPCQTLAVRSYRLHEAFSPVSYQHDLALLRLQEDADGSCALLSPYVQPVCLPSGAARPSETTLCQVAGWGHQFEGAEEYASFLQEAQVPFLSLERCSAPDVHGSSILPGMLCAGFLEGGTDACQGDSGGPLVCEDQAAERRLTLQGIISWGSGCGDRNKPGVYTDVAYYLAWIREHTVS
Experimental for human α-thrombin: Serine protease inhibition assays. The inhibitory activity of synthesized compounds towards thrombin, FXIIa, FXa, FXIa, plasmin, plasma kallikrein, chymotrypsin, and trypsin was measured by quantifying the hydrolysis rate of the fluorogenic substrate as reported previously [14, 17]. Briefly, the activity was tested in buffer (10 mM Tris-Cl, 150 mM NaCl, 10 mM MgCl2·6H2O, 1 mM CaCl2·2H2O, 0.1% w/v BSA, 0.01% v/v Triton-X100, pH = 7.4) utilizing clear flat-bottom, black polystyrene 96 well-plates. […] The fluorogenic substrate solution was added into the wells followed by the addition of 2 µL of test-compounds solution, and the reaction was triggered by addition of the enzyme solution (final testing volume–152 µL). In case of blank (substrate + buffer) and control (substrate + enzyme) wells, 2 µL of DMSO was added instead of the test-compounds’ solution. […] To derive IC50 values, endpoint RFU (single fluorescence reading) was used. Sigmoidal curves were prepared in GraphPad Prism software and IC50 values were derived from the fitted curves [14, 17].

One may read the melting point as the temperature of the solid-liquid transition. `O=C(Nc1cc(-c2cccnc2)n[nH]1)c1ccccc1` [26a, N-[3-(pyridin-3-yl)-1H-pyrazol-5-yl]benzamide]: the melting point was 270 °C (dec.).
What is called IC50 is the point on the concentration scale where inhibition reaches its midpoint. `O=c1[nH]c2cc(-c3cccnc3)nn2c2ccccc12` [compound 15, 2-(pyridin-3-yl)pyrazolo[1,5-a]quinazolin-5(4H)-one]: the IC50 on human β-FXIIa and on human α-thrombin (setting [1]) was greater than 5 µM each time.
For the compound `Nc1cc(-c2cccnc2)nn1C(=O)c1ccccc1` [29a, [5-amino-3-(pyridin-3-yl)-1H-pyrazol-1-yl](phenyl)methanone], the IC50 at human β-FXIIa and on human α-thrombin (setting [1]) was greater than 5 µM in each case.
In the case of `O=C(c1ccccc1I)n1nc(-c2cccnc2)cc1NCc1ccc(Cl)s1` [9e, (5-{[(5-chlorothiophen-2-yl)methyl]amino}-3-(pyridin-3-yl)-1H-pyrazol-1-yl)(2-iodophenyl)methanone], the IC50 at human β-FXIIa is greater than 5 µM; on human α-thrombin (setting [1]), 0.165 ± 0.005 µM. The “fold more potent thrombin inhibitor than 3-phenyl-substituted counterpart 9g” value on human α-thrombin (IC50 165 nM vs. 1.3 μM) is on record as “about 8 fold”.
In the case of `CC(C)(C)C(=O)n1nc(C2CCCCC2)cc1NCc1ccccc1` [24h, 1-[5-(benzylamino)-3-cyclohexyl-1H-pyrazol-1-yl]-2,2-dimethylpropan-1-one], the melting point turned out to be 47 °C. At human β-FXIIa, the “FXIIa inhibitory properties (in words)” value was “inactive” and the IC50 was greater than 5 µM. At human α-thrombin, the “thrombin inhibitory properties (in words)” value was “inactive”. Also, the IC50 at human α-thrombin (setting [2]) is greater than 5 µM.
Consider `O=C(c1ccccc1I)n1nc(-c2cccnc2)cc1NCc1ccccc1` [9a, [5-(benzylamino)-3-(pyridin-3-yl)-1H-pyrazol-1-yl](2-iodophenyl)methanone], for which the melting point is 115 °C. Also, the IC50 at human β-FXIIa was greater than 5 µM. In addition, the IC50 at human α-thrombin (setting [1]) was greater than 5 µM.
As for `O=c1c2ccccc2n(Cc2ccc(Cl)s2)c2cc(-c3cccnc3)nn12` [10e, 4-[(5-chlorothiophen-2-yl)methyl]-2-(pyridin-3-yl)pyrazolo[5,1-b]quinazolin-9(4H)-one], the melting point was 248 to 249 °C. Also, the IC50 at human β-FXIIa is greater than 5 µM. Besides, on human α-thrombin (setting [1]), the IC50 is greater than 5 µM.
In turn, `O=C(c1ccccc1I)n1nc(-c2cccnc2)cc1NCc1ccco1` [9d, {5-[(furan-2-ylmethyl)amino]-3-(pyridin-3-yl)-1H-pyrazol-1-yl}(2-iodophenyl)methanone] showed a melting point of 103 to 104 °C. The concentration for half-maximal inhibition (IC50) at human β-FXIIa is greater than 5 µM. The IC50 at human α-thrombin (setting [1]) was greater than 5 µM.
Regarding `O=c1c2ccccc2n(CC2CCCCC2)c2cc(-c3cccnc3)nn12` [10f, 4-(cyclohexylmethyl)-2-(pyridin-3-yl)pyrazolo[5,1-b]quinazolin-9(4H)-one], the IC50 at human β-FXIIa and at human α-thrombin (setting [1]) was greater than 5 µM each time.
On to `O=c1c2ccccc2n(Cc2ccccc2)c2cc(C3CCCCC3)nn12` [10h, 4-benzyl-2-cyclohexylpyrazolo[5,1-b]quinazolin-9(4H)-one], for which the melting point lay in the range of 180 to 181 °C. Besides, the IC50 at human β-FXIIa is greater than 5 µM. For the same compound, on human α-thrombin (setting [1]), the IC50 was greater than 5 µM.
Regarding `[H]/N=C(/N)c1ccc(NCc2nc3cc(C(=O)N(CCC(=O)O)c4ccccn4)ccc3n2C)cc1` [Dabigatran, reference compound], the IC50 on human β-FXIIa was greater than 5 µM.
In turn, `CC(C)(C)C(=O)n1nc(C2CCCCC2)cc1NCc1ccc(Cl)s1` [24i, 1-(5-{[(5-chlorothiophen-2-yl)methyl]amino}-3-cyclohexyl-1H-pyrazol-1-yl)-2,2-dimethylpropan-1-one] had a melting point of 92 to 93 °C. The half-inhibitory concentration (IC50) at human β-FXIIa was greater than 5 µM. For the same compound, the IC50 at human α-thrombin (setting [2]) is greater than 5 µM.
`COc1ccc(CNc2cc(-c3cccnc3)nn2C(=O)C(C)(C)C)cc1` [24b, 1-{5-[(4-methoxybenzyl)amino]-3-(pyridin-3-yl)-1H-pyrazol-1-yl}-2,2-dimethylpropan-1-one] yielded a melting point of 130 °C. The IC50 at human β-FXIIa is greater than 5 µM. The IC50 on human α-thrombin (setting [2]) was determined as 1.282 ± 0.009 µM. The 50% inhibitory concentration (IC50) at human α-thrombin (read-out: thrombin IC50) was roughly 1.3 µM.
With `Nc1cc(-c2ccccc2)nn1C(=O)c1ccccc1` [29b, (5-amino-3-phenyl-1H-pyrazol-1-yl)(phenyl)methanone], the IC50 on human β-FXIIa and on human α-thrombin (setting [1]) was greater than 5 µM throughout.
Regarding `O=C(Nc1cc(-c2cccnc2)n[nH]1)c1ccccc1I` [compound 14, 2-iodo-N-[3-(pyridin-3-yl)-1H-pyrazol-5-yl]benzamide], the IC50 on human β-FXIIa and on human α-thrombin (setting [1]) was greater than 5 µM throughout.
Take `O=c1[nH]c2nc(-c3ccncc3)nn2c2ccccc12` [compound 23, 2-(pyridin-4-yl)-[1,2,4]triazolo[1,5-a]quinazolin-5(4H)-one]: the IC50 at human β-FXIIa and at human α-thrombin (setting [1]) was greater than 5 µM each time.
With `O=c1c2ccccc2[nH]c2nc(-c3ccncc3)nn12` [compound 22, 2-(pyridin-4-yl)-[1,2,4]triazolo[5,1-b]quinazolin-9(4H)-one], the IC50 on human α-thrombin (setting [1]) was greater than 5 µM.
Regarding `O=c1c2ccccc2[nH]c2nc(-c3cccnc3)nn12` [compound 20, 2-(pyridin-3-yl)-[1,2,4]triazolo[5,1-b]quinazolin-9(4H)-one], the IC50 on human β-FXIIa and at human α-thrombin (setting [1]) was greater than 5 µM each time.
Take `O=C(c1ccccc1I)n1nc(C2CCCCC2)cc1NCc1ccc(Cl)s1` [9i, (5-{[(5-chlorothiophen-2-yl)methyl]amino}-3-cyclohexyl-1H-pyrazol-1-yl)(2-iodophenyl)methanone]: the IC50 at human β-FXIIa and on human α-thrombin (setting [2]) was greater than 5 µM throughout. Further, the “thrombin inhibitory properties (in words)” value on human α-thrombin is reported as “no activity”.
`O=c1[nH]c2nc(-c3cccnc3)nn2c2ccccc12` [compound 21, 2-(pyridin-3-yl)-[1,2,4]triazolo[1,5-a]quinazolin-5(4H)-one]: the IC50 at human β-FXIIa and at human α-thrombin (setting [1]) was greater than 5 µM each time.
Consider `O=c1c2ccccc2n(Cc2ccc(Cl)s2)c2nc(-c3cnccn3)nn12` [compound 19, 4-[(5-chlorothiophen-2-yl)methyl]-2-(pyrazin-2-yl)-[1,2,4]triazolo[5,1-b]quinazolin-9(4H)-one], for which the IC50 on human β-FXIIa and on human α-thrombin (setting [1]) was greater than 5 µM throughout.
On to `O=c1c2ccccc2n(Cc2ccc(Cl)s2)c2cc(-c3ccccc3)nn12` [10g, 4-[(5-chlorothiophen-2-yl)methyl]-2-phenylpyrazolo[5,1-b]quinazolin-9(4H)-one], for which the IC50 on human β-FXIIa and at human α-thrombin (setting [1]) was greater than 5 µM throughout.
For the compound `O=C(c1ccccc1I)n1nc(-c2cccnc2)cc1NCC1CCCCC1` [9f, {5-[(cyclohexylmethyl)amino]-3-(pyridin-3-yl)-1H-pyrazol-1-yl}(2-iodophenyl)methanone], the IC50 on human β-FXIIa and at human α-thrombin (setting [1]) was greater than 5 µM throughout.
With `O=C(c1ccccc1I)n1nc(C2CCCCC2)cc1NCc1ccccc1` [9h, [5-(benzylamino)-3-cyclohexyl-1H-pyrazol-1-yl](2-iodophenyl)methanone], the IC50 at human β-FXIIa and on human α-thrombin (setting [1]) was greater than 5 µM in each case.
`CC(C)(C)C(=O)n1nc(-c2cccnc2)cc1NCc1ccco1` [24d, 1-(5-{[(furan-2-yl)methyl]amino}-3-(pyridin-3-yl)-1H-pyrazol-1-yl)-2,2-dimethylpropan-1-one]: the values for the IC50 at human β-FXIIa, at human α-thrombin (setting [2]) and at human α-thrombin (read-out: thrombin IC50) were greater than 5 µM, 1.31 ± 0.032 µM and roughly 1.3 µM, respectively.
Turning to `CC(C)(C)C(=O)n1nc(-c2ccccc2)cc1NCc1ccc(Cl)s1` [24g, 1-(5-{[(5-chlorothiophen-2-yl)methyl]amino}-3-phenyl-1H-pyrazol-1-yl)-2,2-dimethylpropan-1-one], the IC50 at human β-FXIIa is greater than 5 µM; on human α-thrombin (setting [2]), 0.419 ± 0.099 µM.
